From PubChem BioAssay (NCI)
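Where inhibition never reached the appropriate level, the endpoint shown equals the highest concentration tested. Otherwise, values were interpolated linearly from a five-concentration, 48-hour dose response in 96-well plates. The concentration for 50% growth inhibition is given as GI50. TGI marks complete inhibition of growth.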

How the values were obtained:
Assay in all cases: DTP human tumour cell line panel, 48 h
SK-MEL-5 melanoma = tested on: SK-MEL-5 melanoma
OVCAR-3 ovarian = tested on: OVCAR-3 ovarian
NCI-H23 lung = tested on: NCI-H23 lung
BT-549 breast = tested on: BT-549 breast
KM12 colon = tested on: KM12 colon
M14 melanoma = tested on: M14 melanoma
NCI-H460 lung = tested on: NCI-H460 lung
SW-620 colon = tested on: SW-620 colon
RXF 393 renal = tested on: RXF 393 renal
MDA-MB-435 = tested on: MDA-MB-435
A549 NSCLC = tested on: A549 NSCLC
MOLT-4 leukemia = tested on: MOLT-4 leukemia
NCI-H522 lung = tested on: NCI-H522 lung
K-562 leukemia = tested on: K-562 leukemia
HS 578T breast = tested on: HS 578T breast
SF-539 CNS = tested on: SF-539 CNS
OVCAR-4 ovarian = tested on: OVCAR-4 ovarian
SK-MEL-28 melanoma = tested on: SK-MEL-28 melanoma
HOP-62 NSCLC = tested on: HOP-62 NSCLC
ACHN renal = tested on: ACHN renal
HL-60(TB) leukemia = tested on: HL-60(TB) leukemia
A498 renal = tested on: A498 renal
SK-MEL-2 melanoma = tested on: SK-MEL-2 melanoma
UACC-62 melanoma = tested on: UACC-62 melanoma
IGROV1 ovarian = tested on: IGROV1 ovarian
SR leukemia = tested on: SR leukemia
NCI-H226 lung = tested on: NCI-H226 lung
SF-295 CNS = tested on: SF-295 CNS

For `CCOC(=O)c1ccc(NC2=C(Cl)C(=O)c3nc(C)ccc3C2=O)cc1`, the GI50 (SK-MEL-5 melanoma) was 2.21 µM, the TGI (SK-MEL-5 melanoma) was 5.63 µM and the GI50 (OVCAR-3 ovarian) was 1.78 µM. It also gave a TGI (OVCAR-3 ovarian) of 3.22 µM, a GI50 (NCI-H23 lung) of 2.31 µM and a TGI (NCI-H23 lung) of 7.58 µM. The GI50 (BT-549 breast) was 2.06 µM, the TGI (BT-549 breast) was 5.1 µM and the GI50 (KM12 colon) was 3.37 µM. For the same molecule, the TGI (KM12 colon) was 12.9 µM, the GI50 (M14 melanoma) was 1.85 µM and the TGI (M14 melanoma) was 3.76 µM. It also gave a GI50 (NCI-H460 lung) of 8.76 µM, a TGI (NCI-H460 lung) of 30.1 µM and a GI50 (SW-620 colon) of 2.06 µM. The TGI (SW-620 colon) was 4.41 µM, the GI50 (RXF 393 renal) was 1.63 µM and the TGI (RXF 393 renal) was 3.02 µM. The GI50 (MDA-MB-435) was 3.21 µM, the TGI (MDA-MB-435) was 10.8 µM and the GI50 (A549 NSCLC) was 19.4 µM. The TGI (A549 NSCLC) was 70.5 µM, the GI50 (MOLT-4 leukemia) was 1.57 µM and the TGI (MOLT-4 leukemia) was 5.32 µM. It also gave a GI50 (NCI-H522 lung) of 1.71 µM, a TGI (NCI-H522 lung) of 3.72 µM and a GI50 (K-562 leukemia) of 0.371 µM. The TGI (K-562 leukemia) was 3.3 µM, the GI50 (HS 578T breast) was 2.55 µM and the TGI (HS 578T breast) was 7 µM. For the same molecule, the GI50 (SF-539 CNS) was 2.52 µM, the TGI (SF-539 CNS) was 6.72 µM and the GI50 (OVCAR-4 ovarian) was 1.67 µM. For the same molecule, the TGI (OVCAR-4 ovarian) was 3.26 µM, the GI50 (SK-MEL-28 melanoma) was 2.47 µM and the TGI (SK-MEL-28 melanoma) was 6.02 µM. It also gave a GI50 (HOP-62 NSCLC) of 10.2 µM, a TGI (HOP-62 NSCLC) of 23.9 µM and a GI50 (ACHN renal) of 1.81 µM. The TGI (ACHN renal) was 3.35 µM, the GI50 (HL-60(TB) leukemia) was 1.1 µM and the TGI (HL-60(TB) leukemia) was 3.21 µM. The GI50 (A498 renal) was 11.7 µM, the TGI (A498 renal) was 28.3 µM and the GI50 (SK-MEL-2 melanoma) was 2.89 µM. It also gave a TGI (SK-MEL-2 melanoma) of 9.46 µM, a GI50 (UACC-62 melanoma) of 2.46 µM and a TGI (UACC-62 melanoma) of 11.2 µM. For the same molecule, the GI50 (IGROV1 ovarian) was 3.43 µM, the TGI (IGROV1 ovarian) was 11.3 µM and the GI50 (SR leukemia) was 0.783 µM. For the same molecule, the TGI (SR leukemia) was 3.57 µM, the GI50 (NCI-H226 lung) was 3.43 µM and the TGI (NCI-H226 lung) was 17.5 µM. The GI50 (SF-295 CNS) was 5.48 µM and the TGI (SF-295 CNS) was 19.1 µM.
